In PubChem BioAssay (NCI):
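In this assay, cells in 96-well plates receive the compound at five concentrations for 48 hours. Endpoints are linearly interpolated between the surrounding concentrations. TGI: concentration producing complete growth inhibition.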

Tests used:
Assay in all cases: inhibition of tumour cell growth, NCI panel, 48 h
CCRF-CEM leukemia = system: CCRF-CEM leukemia
OVCAR-5 ovarian = system: OVCAR-5 ovarian
TK-10 renal = system: TK-10 renal
ACHN renal = system: ACHN renal
CAKI-1 renal = system: CAKI-1 renal
KM12 colon = system: KM12 colon
OVCAR-4 ovarian = system: OVCAR-4 ovarian
SF-268 CNS = system: SF-268 CNS
OVCAR-8 ovarian = system: OVCAR-8 ovarian
SW-620 colon = system: SW-620 colon
NCI-H460 lung = system: NCI-H460 lung
U251 CNS = system: U251 CNS
SF-295 CNS = system: SF-295 CNS
MDA-MB-435 = system: MDA-MB-435
SK-MEL-2 melanoma = system: SK-MEL-2 melanoma
SK-MEL-28 melanoma = system: SK-MEL-28 melanoma
HOP-92 NSCLC = system: HOP-92 NSCLC
HOP-62 NSCLC = system: HOP-62 NSCLC
MDA-MB-231 breast = system: MDA-MB-231 breast
A549 NSCLC = system: A549 NSCLC
K-562 leukemia = system: K-562 leukemia
PC-3 prostate = system: PC-3 prostate
DU-145 prostate = system: DU-145 prostate
RPMI-8226 leukemia = system: RPMI-8226 leukemia
HCT-15 colon = system: HCT-15 colon
HS 578T breast = system: HS 578T breast
UACC-257 melanoma = system: UACC-257 melanoma
SK-OV-3 ovarian = system: SK-OV-3 ovarian
RXF 393 renal = system: RXF 393 renal
SNB-19 CNS = system: SNB-19 CNS
LOX IMVI melanoma = system: LOX IMVI melanoma
MDA-N = system: MDA-N
MALME-3M melanoma = system: MALME-3M melanoma
HCT-116 colon = system: HCT-116 colon
MOLT-4 leukemia = system: MOLT-4 leukemia
T-47D breast = system: T-47D breast
NCI-H522 lung = system: NCI-H522 lung
BT-549 breast = system: BT-549 breast
SK-MEL-5 melanoma = system: SK-MEL-5 melanoma
IGROV1 ovarian = system: IGROV1 ovarian
HT29 colon = system: HT29 colon
SN12C renal = system: SN12C renal
786-0 renal = system: 786-0 renal
COLO 205 colon = system: COLO 205 colon
MCF7 breast = system: MCF7 breast
UACC-62 melanoma = system: UACC-62 melanoma
HL-60(TB) leukemia = system: HL-60(TB) leukemia
EKVX NSCLC = system: EKVX NSCLC
NCI-H23 lung = system: NCI-H23 lung
OVCAR-3 ovarian = system: OVCAR-3 ovarian
NCI/ADR-RES ovarian = system: NCI/ADR-RES ovarian
A498 renal = system: A498 renal
SF-539 CNS = system: SF-539 CNS
UO-31 renal = system: UO-31 renal
M14 melanoma = system: M14 melanoma
HCC-2998 colon = system: HCC-2998 colon
SNB-75 CNS = system: SNB-75 CNS
NCI-H226 lung = system: NCI-H226 lung

Cc1ccc(S(=O)(=O)NNC2(NS(=O)(=O)c3ccc(Cl)cc3)C(Cl)=C(Cl)C(=O)c3ccccc32)cc1 (stereo unspecified)
TGI (CCRF-CEM leukemia): 63 µM | TGI (OVCAR-5 ovarian): 33.4 µM | TGI (TK-10 renal): 30.5 µM | TGI (ACHN renal): 29.7 µM | TGI (CAKI-1 renal): 32.4 µM | TGI (KM12 colon): 35.2 µM | TGI (OVCAR-4 ovarian): 30.1 µM | TGI (SF-268 CNS): 29.6 µM | TGI (OVCAR-8 ovarian): 87.8 µM | TGI (SW-620 colon): 76 µM | TGI (NCI-H460 lung): 38.1 µM | TGI (U251 CNS): 57.3 µM | TGI (SF-295 CNS): 51.4 µM | TGI (MDA-MB-435): 36 µM | TGI (SK-MEL-2 melanoma): 50.6 µM | TGI (SK-MEL-28 melanoma): 60.7 µM | TGI (HOP-92 NSCLC): 41.6 µM | TGI (HOP-62 NSCLC): 54.8 µM | TGI (MDA-MB-231 breast): 44.9 µM | TGI (A549 NSCLC): 34.2 µM | TGI (K-562 leukemia): 36.1 µM | TGI (PC-3 prostate): 33.5 µM | TGI (DU-145 prostate): 33.2 µM | TGI (RPMI-8226 leukemia): 67 µM | TGI (HCT-15 colon): 83.8 µM | TGI (HS 578T breast): 54.8 µM | TGI (UACC-257 melanoma): 32.6 µM | TGI (SK-OV-3 ovarian): 32.2 µM | TGI (RXF 393 renal): 31.1 µM | TGI (SNB-19 CNS): 29.8 µM | TGI (LOX IMVI melanoma): 65.1 µM | TGI (MDA-N): 32.2 µM | TGI (MALME-3M melanoma): 33.2 µM | TGI (HCT-116 colon): 32.4 µM | TGI (MOLT-4 leukemia): > 100 µM | TGI (T-47D breast): > 100 µM | TGI (NCI-H522 lung): > 100 µM | TGI (BT-549 breast): 29.1 µM | TGI (SK-MEL-5 melanoma): 28.7 µM | TGI (IGROV1 ovarian): 34.3 µM | TGI (HT29 colon): 35.1 µM | TGI (SN12C renal): 31.6 µM | TGI (786-0 renal): 28.2 µM | TGI (COLO 205 colon): 34.9 µM | TGI (MCF7 breast): 37.3 µM | TGI (UACC-62 melanoma): 31 µM | TGI (HL-60(TB) leukemia): 37.4 µM | TGI (EKVX NSCLC): 28.9 µM | TGI (NCI-H23 lung): 34.1 µM | TGI (OVCAR-3 ovarian): 42.1 µM | TGI (NCI/ADR-RES ovarian): 89.8 µM | TGI (A498 renal): 36.7 µM | TGI (SF-539 CNS): 48.8 µM | TGI (UO-31 renal): 42.5 µM | TGI (M14 melanoma): 33 µM | TGI (HCC-2998 colon): 33.2 µM

CCOC(=O)C1(C/C=C\CBr)CCCCCCCCCCC1=O (stereo unspecified)
TGI (OVCAR-5 ovarian): 35.2 µM | TGI (TK-10 renal): 22.8 µM | TGI (ACHN renal): 32 µM | TGI (CAKI-1 renal): 27.2 µM | TGI (KM12 colon): 28.8 µM | TGI (OVCAR-4 ovarian): 27.4 µM | TGI (SF-268 CNS): 27.6 µM | TGI (OVCAR-8 ovarian): 31.4 µM | TGI (SW-620 colon): 30.1 µM | TGI (NCI-H460 lung): 33 µM | TGI (U251 CNS): 26.1 µM | TGI (SF-295 CNS): 31.7 µM | TGI (MDA-MB-435): 29.8 µM | TGI (SK-MEL-2 melanoma): 36.5 µM | TGI (SK-MEL-28 melanoma): 30.7 µM | TGI (HOP-62 NSCLC): 34.7 µM | TGI (MDA-MB-231 breast): 17.8 µM | TGI (A549 NSCLC): > 53 µM | TGI (K-562 leukemia): 20.2 µM | TGI (PC-3 prostate): 25.1 µM | TGI (DU-145 prostate): 31.9 µM | TGI (RPMI-8226 leukemia): 9.02 µM | TGI (HCT-15 colon): 32.8 µM | TGI (HS 578T breast): 43.2 µM | TGI (UACC-257 melanoma): 31.3 µM | TGI (SK-OV-3 ovarian): 31.2 µM | TGI (RXF 393 renal): 25.4 µM | TGI (SNB-75 CNS): 26.9 µM | TGI (SNB-19 CNS): 36.6 µM | TGI (LOX IMVI melanoma): 1.66 µM | TGI (MDA-N): 38.4 µM | TGI (MALME-3M melanoma): 19.1 µM | TGI (HCT-116 colon): > 54.2 µM | TGI (MOLT-4 leukemia): > 27 µM | TGI (T-47D breast): 29.7 µM | TGI (NCI-H522 lung): 1.04 µM | TGI (NCI-H226 lung): 16.6 µM | TGI (BT-549 breast): 31.7 µM | TGI (SK-MEL-5 melanoma): 26.5 µM | TGI (IGROV1 ovarian): 11.5 µM | TGI (HT29 colon): 34.3 µM | TGI (SN12C renal): 28.4 µM | TGI (786-0 renal): > 53 µM | TGI (COLO 205 colon): 33.7 µM | TGI (MCF7 breast): 42.3 µM | TGI (UACC-62 melanoma): 31.9 µM | TGI (EKVX NSCLC): 34.4 µM | TGI (NCI-H23 lung): 26.2 µM | TGI (OVCAR-3 ovarian): 9.75 µM | TGI (NCI/ADR-RES ovarian): 39.2 µM | TGI (A498 renal): 29.1 µM | TGI (SF-539 CNS): 14.8 µM | TGI (UO-31 renal): 15.2 µM | TGI (M14 melanoma): 55 µM | TGI (HCC-2998 colon): 30.2 µM
